Test: Stability study of lyophilized Compound I with mannitol (Method A / Method B samples)
Format: physicochemical
Details: Method B sample
Experimental: […] Each 30 mL Type I, clear glass sample vial with 20 mm Freeze Dry Stoppers (Flurotech™ coated) contained 150 mg of Compound I.
At each time point, a vial was removed from the stored condition and reconstituted with 10 mL of D5W and analyzed by HPLC method as discussed in Example 5 at 1 month, 2 months, 3 months, and/or 6 months. In Tables 18-18e, RRT matches the Compounds as shown below.
Sample Preparation—Method A: 10% Mannitol solution was prepared by weighing 200 g±1.0 g of mannitol into glass beaker, adding approximately 1500 mL of WFI (water for injection) to the beaker and stirring until mannitol was dissolved. The mannitol solution was transferred to a 2 L volumetric flask and made to volume with WFI, then poured back to the original beaker to sir and mix further. 1M HCl solution was prepared by adding 16.4 mL of HCl (37%) to a 200 mL volumetric flask containing approximately 100 mL of WFI, adding WFI to make 200 mL in volume, and inverting to mix the prepared solution.
To a tared 2 L Schott bottle containing a magnetic stirrer and wrapped in aluminum foil, 1020 g±1.0 g of the 10% mannitol solution was added. Then, 58.4 g±0.05 g of the 1M HCl solution was added to the 2 L Schott bottle and stirred for approximately 10 minutes. The solution prepared in the 2 L Schott bottle was purged with nitrogen which was continued throughout the manufacturing process. 30.22 g of Compound I (free base) was weighed then added to the 2 L Schott bottle containing 10% mannitol solution and 1 M HCl solution with continual magnetic stirring. The container used to weigh Compound I was rinsed with 3×10 mL of WFI and added to the Schott bottle. After Compound I dissolved (approximately 40 minutes), additional 650 g of WFI was added to the Schott bottle and the solution was stirred for approximately 10 minutes. The pH of the Compound I solution (in Schott bottle) was measured then adjusted to pH 4.5±0.1 using 1 M HCl solution. After each addition of 1 M HCl solution, the solution was stirred for several minutes prior to verifying the pH. Once the pH was adjusted, nitrogen purging was stopped. The pH adjusted Compound I solution was further diluted with WFI to a target weight of 2040 g±1.0 g and stirred.
The final solution (pH adjusted and diluted) was filtered (chain including PVD Fmembrane filter 0.45 μm and 0.22 μm; peristaltic filtration pump by Watson Marlow) in the Bigneat and the bottle containing the filtered solution was sealed. The filtered solution was pumped (Watson Marlow Flexicon PF6-B pump; 100 RPM) into 30 mL Schott Clear Glass vials (10.0 mL filtered solution each). The glass vials were partially stoppered with 20 mm Freeze Dry Stopper Flurotec (Daikyo Seiko) one vial at a time with sterilized utensils inside a fume hood (Envair B101+1.5R) and placed on freeze dryer trays. The freeze dryer trays were transferred into freeze dry chamber and vial probe was positioned (Lyostar II; FTS Kinetics). Lyophilization was performed using the lyophilization cycle listed below. After lyophilization cycle finished, the vials were back filled with N2 and the stopper was placed in situ, wiped down with isopropanol in the fume hood once removed from the freeze dryer, reconciled, then crimped. Seven vials out of 186 sample vials placed under the lyophilization cycle had smashed in the freeze dryer.
Sample Preparation—Method B (dissolved oxygen content ≤1 ppm): 2 L WFI was poured into a Schott bottled and degassed for 30 minutes with N2 until dissolved oxygen content was ≤1 ppm (dissolved oxygen meter and probe; Mettler Toledo). 10% Mannitol solution was prepared by adding […] of mannitol and 1000 mL of degassed WFI to a tared 2 L Schott bottle containing a magnetic stirrer and wrapped in aluminum foil. To the Schott bottle containing mannitol, 15 mL of 2M HCl was added and stirred for approximately 10 minutes. The resulting solution was sparged with N2 while stirring until dissolved oxygen content was ≤1 ppm (approx. 30 min). […]

[1] = 5° C, time not printed (2nd block, col 1)
[2] = 5° C, time not printed (2nd block, col 2)
[3] = 5° C, time not printed (2nd block, col 3)
[4] = 5° C, time not printed (2nd block, col 4)
[5] = −20° C., time not printed (2nd block, col 1)
[6] = −20° C., time not printed (2nd block, col 2)
[7] = −20° C., time not printed (2nd block, col 3)
[8] = −20° C., time not printed (2nd block, col 4)

## Cc1cnc(CNC(=O)c2c(=O)c3ccc(N4CCCN(C)CC4)nc3n3c2sc2ccccc23)cn1 [Compound I, 2-(4-Methyl-[1,4]diazepan-1-yl)-5-oxo-5H-7-thia-1,11b-diaza-benzo[c]fluorene-6-carboxylic acid (5-methyl-pyrazin-2-ylmethyl)-amide]
5° C, Initial
  pH (USP<791>): 4.6
[1]
  Appearance: Off-white powder
  Appearance (Reconstituted Solution): Clear, colorless
  Compound I by HPLC assay: 101.7%
  Related Substances RRT 1.05: RRT 1.05: 0.14%
  Related Substances RRT 1.07: RRT 1.07: 0.05%
  Related Substances Total: Total:0.2%
  Water Content USP<921 Method 1c>: 1.37%
  pH (USP<791>): 4.6
[2]
  Appearance: Off-white powder
  Appearance (Reconstituted Solution): Clear, colorless
  Compound I by HPLC assay: 101.3%
  Related Substances RRT 1.05: RRT 1.05: 0.13%
  Related Substances Total: Total: 0.1%
  Water Content USP<921 Method 1c>: 1.29%
  pH (USP<791>): 4.5
[3]
  Appearance: Off-white powder
  Appearance (Reconstituted Solution): Clear, colorless
  Compound I by HPLC assay: 100.3%
  Related Substances RRT 1.05: RRT 1.05: 0.13%
  Related Substances Total: Total: 0.1%
  Water Content USP<921 Method 1c>: 1.05%
  pH (USP<791>): 4.5
[4]
  Appearance: Off-white powder
  Appearance (Reconstituted Solution): Clear, colorless
  Compound I by HPLC assay: 99.1%
  Related Substances RRT 1.05: RRT 1.05: 0.11%
  Related Substances Total: Total: 0.1%
  Water Content USP<921 Method 1c>: 1.25%
  pH (USP<791>): 4.5
25° C./60% RH, 1 month
  Appearance: White
  Appearance (Reconstituted Solution): Clear, colorless
  Compound I by HPLC assay: 99.8%
  Reconstitution Time: 55 s
  Related Substances RRT 1.06: 0.17%
  Related Substances RRT 1.08: 0.06%
  Related Substances Total: Total: 0.2%
  Water Content USP<921 Method 1c>: 1.47%
  pH (USP<791>): 4.4
25° C./60% RH, 2 months
  Appearance: Off-white
  Appearance (Reconstituted Solution): Clear, colorless
  Compound I by HPLC assay: 101.0%
  Related Substances RRT 0.17: 0.08%
  Related Substances RRT 1.04: 0.08%
  Related Substances RRT 1.05: 0.17%
  Related Substances Total: Total: 0.3%
  Water Content USP<921 Method 1c>: 1.30%
  pH (USP<791>): 4.6
25° C./60% RH, 3 months
  Appearance: Off-white
  Appearance (Reconstituted Solution): Clear, colorless
  Compound I by HPLC assay: 100.8%
  Related Substances RRT 0.17: 0.09%
  Related Substances RRT 1.04: 0.08%
  Related Substances RRT 1.05: 0.19%
  Related Substances Total: Total: 0.4%
  Water Content USP<921 Method 1c>: 1.30%
  pH (USP<791>): 4.6
25° C./60% RH, 6 months
  Appearance: Off-white
  Appearance (Reconstituted Solution): Clear, colorless
  Compound I by HPLC assay: 100.3%
  Related Substances RRT 0.88: 0.06%
  Related Substances RRT 1.05: 0.16%
  Related Substances RRT 1.07: 0.10%
  Related Substances Total: Total: 0.3%
  Water Content USP<921 Method 1c>: 1.30%
  pH (USP<791>): 4.5
25° C./60% RH, 12 months
  Appearance: Off-white
  Appearance (Reconstituted Solution): Clear, colorless
  Compound I by HPLC assay: 100.7%
  Related Substances RRT 1.05: 0.18%
  Related Substances RRT 1.07: 0.09%
  Related Substances Total: Total: 0.3%
  Water Content USP<921 Method 1c>: 1.55%
  pH (USP<791>): 4.5
25° C./60% RH, 24 months
  Appearance: Off-white
  Appearance (Reconstituted Solution): Clear, colorless
  Compound I by HPLC assay: 97.6%
  Related Substances RRT 0.88: 0.05%
  Related Substances RRT 1.05: 0.16%
  Related Substances RRT 1.06: 0.17%
  Related Substances Total: Total: 0.4%
  Water Content USP<921 Method 1c>: 1.33%
  pH (USP<791>): 4.4
25° C./60% RH, Initial
  Appearance: White
  Appearance (Reconstituted Solution): Clear, colorless
  Compound I by HPLC assay: 100.2%
  Related Substances RRT 0.96: 0.05%
  Related Substances RRT 1.04: 0.05%
  Related Substances RRT 1.06: 0.17%
  Related Substances RRT 1.08: 0.06%
  Related Substances Total: Total: 0.3%
  Water Content USP<921 Method 1c>: 1.12%
  pH (USP<791>): 4.6
−20° C., 1 month
  Appearance: White powder
  Appearance (Reconstituted Solution): Clear, colorless
  Compound I by HPLC assay: 100.9%
  Reconstitution Time: 65 s
  Related Substances RRT 1.06: RRT 1.06: 0.16%
  Related Substances RRT 1.08: RRT 1.08: 0.06%
  Related Substances Total: Total: 0.2%
  Water Content USP<921 Method 1c>: 1.13%
  pH (USP<791>): 4.4
−20° C., 3 months
  Appearance: Off-white powder
  Appearance (Reconstituted Solution): Clear, colorless
  Compound I by HPLC assay: 99.5%
  Related Substances RRT 1.04: RRT 1.04: 0.08%
  Related Substances RRT 1.05: RRT 1.05: 0.18%
  Related Substances Total: Total: 0.3%
  Water Content USP<921 Method 1c>: 1.33%
  pH (USP<791>): 4.4
−20° C., 6 months
  Appearance: Off-white powder
  Appearance (Reconstituted Solution): Clear, colorless
  Compound I by HPLC assay: 99.7%
  Related Substances RRT 1.05: RRT 1.05: 0.13%
  Related Substances Total: Total: 0.1%
  Water Content USP<921 Method 1c>: 1.24%
  pH (USP<791>): 4.5
−20° C., Initial
  Appearance: White powder
  Appearance (Reconstituted Solution): Clear, colorless
  Compound I by HPLC assay: 100.2%
  Related Substances RRT 0.96: RRT 0.96: 0.05%
  Related Substances RRT 1.04: RRT 1.04: 0.05%
  Related Substances RRT 1.06: RRT 1.06: 0.17%
  Related Substances RRT 1.08: RRT 1.08: 0.06%
  Related Substances Total: Total:0.3%
  Water Content USP<921 Method 1c>: 1.12%
  pH (USP<791>): 4.6
[5]
  Appearance: Off-white powder
  Appearance (Reconstituted Solution): Clear, colorless
  Compound I by HPLC assay: 100.8%
  Related Substances RRT 1.05: RRT 1.05: 0.13%
  Related Substances Total: Total: 0.1%
  Water Content USP<921 Method 1c>: 1.30%
  pH (USP<791>): 4.6
[6]
  Appearance: Off-white powder
  Appearance (Reconstituted Solution): Clear, colorless
  Compound I by HPLC assay: 101.9%
  Related Substances RRT 1.05: RRT 1.05: 0.13%
  Related Substances Total: Total: 0.1%
  Water Content USP<921 Method 1c>: 1.29%
  pH (USP<791>): 4.5
[7]
  Appearance: Off-white powder
  Appearance (Reconstituted Solution): Clear, colorless
  Compound I by HPLC assay: 101.3%
  Related Substances RRT 1.05: RRT 1.05: 0.12%
  Related Substances Total: Total: 0.1%
  Water Content USP<921 Method 1c>: 1.10%
  pH (USP<791>): 4.5
[8]
  Appearance: Off-white powder
  Appearance (Reconstituted Solution): Clear, colorless
  Compound I by HPLC assay: 98.1%
  Related Substances RRT 1.05: RRT 1.05: 0.10%
  Related Substances Total: Total: 0.1%
  Water Content USP<921 Method 1c>: 1.10%
  pH (USP<791>): 4.4
